System: P. ehimensis NPUST-1
Experiment: Inhibition effect of aquacultural antibiotics against NPUST-1 strain (inhibitory zone)
Type: cell-based, Paenibacillus ehimensis
Set-up: inhibitory zone size: unit not given here
Details: for inhibitory zone size: TSB agar plate containing P. ehimensis NPUST-1, each antibiotic at its maximum concentration for aquaculture (Table 4); for resistance of the strain NPUST-1 against the antibiotic / inhibition effect against P. ehimensis NPUST-1: in words; for inhibition effect against P. ehimensis NPUST-1: antibiotic at maximum concentration for aquaculture
Description: To find out competent antibiotics for combination with NPUST-1 bacterial strain used as a probiotic, inhibition effect of varies aquacultural antibiotics against NPUST-1 bacterial strain are examined. Detailed testing steps are described as below.
Following antibiotics are examined: amoxicillin, ampicillin, doxycycline, erythromycin, furazolidone, flumequine, ormetoprim, oxytetracycline, sulfadimethoxine, chloramphenicol, gentamycin and kanamycin. The antibiotics concentration (shown in table 4) being tested are the available maximum concentration conformed to the drug regulation for aquaculture. After all the antibiotics are prepared, use TSB agar plate containing P. ehimensis NPUST-1 to determine the antibacterial activity and measure the inhibitory zone of antibiotics.

| Compound | inhibitory zone size | resistance of the strain NPUST-1 against the antibiotic | inhibition effect against P. ehimensis NPUST-1 |
| --- | --- | --- | --- |
| CC1(C)S[C@@H]2[C@H](NC(=O)[C@H](N)c3ccc(O)cc3)C(=O)N2[C@H]1C(=O)O [Amoxicillin, amoxicillin] | 2.30 ± 0.10 | – | – |
| CC1(C)S[C@@H]2[C@H](NC(=O)[C@H](N)c3ccccc3)C(=O)N2[C@H]1C(=O)O [Ampiciliin, ampicillin] | – | resistance | no inhibition effect |
| O=C(N[C@H](CO)[C@H](O)c1ccc([N+](=O)[O-])cc1)C(Cl)Cl [Chloramphenicol, chloramphenicol] | 2.67 ± 0.06 | – | – |
| C[C@H]1c2cccc(O)c2C(=O)C2=C(O)[C@]3(O)C(=O)C(C(N)=O)=C(O)[C@@H](N(C)C)[C@@H]3[C@@H](O)[C@@H]21 [Doxycycline, doxycycline] | 3.30 ± 0.00 | – | – |
| CC[C@H]1OC(=O)[C@H](C)[C@@H](O[C@H]2C[C@@](C)(OC)[C@@H](O)[C@H](C)O2)[C@H](C)[C@@H](O[C@@H]2O[C@H](C)C[C@H](N(C)C)[C@H]2O)[C@](C)(O)C[C@@H](C)C(=O)[C@H](C)[C@@H](O)[C@]1(C)O [Erythromycin, erythromycin] | 1.73 ± 0.06 | – | – |
| CC1CCc2cc(F)cc3c(=O)c(C(=O)O)cn1c23 (centres unmarked) [Flumequine, flumequine] | 5.67 ± 0.06 | – | – |
| O=C1OCCN1/N=C/c1ccc([N+](=O)[O-])o1 [Furazolidone, furazolidone] | 1.00 ± 0.00 | – | – |
| NC[C@H]1O[C@H](O[C@H]2[C@H](O)[C@@H](O[C@H]3O[C@H](CO)[C@@H](O)[C@H](N)[C@H]3O)[C@H](N)C[C@@H]2N)[C@H](O)[C@@H](O)[C@@H]1O [Kanamycin, kanamycin] | 1.13 ± 0.03 | – | – |
| COc1cc(C)c(Cc2cnc(N)nc2N)cc1OC [Ormetoprim, ormetoprim] | 4.60 ± 0.00 | – | – |
| CN(C)[C@@H]1C(O)=C(C(N)=O)C(=O)[C@@]2(O)C(O)=C3C(=O)c4c(O)cccc4[C@@](C)(O)[C@H]3[C@H](O)[C@@H]12 [Oxytetracycline, oxytetracycline] | 2.13 ± 0.06 | – | – |
| COc1cc(NS(=O)(=O)c2ccc(N)cc2)nc(OC)n1 [Sulfadimethoxine, sulfadimethoxine] | – | – | no inhibition effect |
| Cc1ccnc(NS(=O)(=O)c2ccc(N)cc2)n1 [sulfamerazine] | – | resistance | – |
| gentamycin | 2.03 ± 2.03 | – | – |

From patent US10689421B2, “Bacteriocin-producing Paenibacillus ehimensis and application thereof” (National Pingtung University of Science and Technology, priority 2018, dated 2020)
